The values that follow come from patent publication US4822778A, “Membrane stabilizing phenoxy-piperidine compounds and pharmaceutical compositions employing such compounds” (Aberg; Gunnar, priority 1988, dated 1989).

A short description of data set [1]: Convulsive and lethal doses in rats, intravenous infusion. In kind it is in vivo. Conditions: rat, in vivo, iv; male rats, i.v. at 1.0 mg/kg/min; read-out: Convulsive dose. On the procedure: (§1) Convulsive doses and lethal doses after intravenous administration for selected compounds of the invention and for Bupivacaine are shown in Table 3 below.
(§2) Convulsive and lethal doses of selected compounds
(§3) administered intravenously at 1.0 mg/kg/min to rats (male;

The next data set has as its system rats. The description is as above. In kind it is in vivo. Conditions: male rats, i.v. at 1.0 mg/kg/min. As for the experimental part: as §1, §2, §3
A short description of another data set: in vivo. Conditions: mouse, sc.
Another data set concerns guinea pigs. The experiment in a line: Infiltration anesthetic effects, intracutaneous injection in guinea pigs. In kind it is in vivo. Conditions: 0.2 ml of 0.5% by weight solution. On the procedure: 1. […] A. Infiltration anesthetic effects: The effects of the new compounds were tested according to Aberg & […], Acta Anaesth.
Another data set has as its system sciatic nerve. In words: Nerve blocking effects in rats in vivo. The following applies: 0.25 ml of 0.5% by weight solution. As for the experimental part: B. Nerve blocking effects. The tests were carried out in vivo in rats after injection of 0.25 ml of the test solutions close to the sciatic nerve.
A further data set concerns rabbit cornea. In words: Topical anesthetic effects, corneal test in rabbits in vivo. The following applies: 0.25 ml. On the procedure:
C. Topical anesthetic effects. Corneal tests were carried out in rabbits in vivo according to Henn.

A further data set relates to cynomolgus monkeys. The experiment in a line: Spinal anesthetic effects in monkeys, intrathecal injection. It is filed as in vivo. Conditions: intrathecal 1.0 ml. On the procedure: D. Spinal Anesthetic Effects.
Spinal anesthetsias were performed on cynomolgus monkeys that had been sedated with ketamine (6 mg/kg; i.m.). 1.0 ml of the test solutions were injected intrathecally and the durations were tested every ten (10) minutes with forceps. The duration of motoric blockade was calculated as the time until the hind leg paralysis ceased.

The next data set has as its system ventricular arrhythmias. In words: Antiarrhythmic effects, ouabain-induced ventricular arrhythmias in anesthetized dogs. In kind it is in vivo. Conditions: i.v. On the procedure:
2. Antiarrhythmic effects.
Ventricular arrhythmias were induced in anesthetized dogs by intravenous injection of ouabain: initially 40 μg/kg bodyweight and thereafter 20 μg/kg bodyweight every 20 minutes until the ventricular arrhythmia was regarded as manifest. Lidocaine was also tested by the same procedure. The new compounds were compared with lidocaine, a known antiarrhythmic compound.

The next data set concerns lingomandibular reflex. The experiment in a line: Interneuronblocking effects, lingomandibular reflex in anesthetized cats. It is filed as in vivo, cats (female; 2.5-3.5 kg). On the procedure:
3. Interneuronblocking effects.
Tests were carried out in anesthetized cats (female; 2.5-3.5 kg bodyweight). The effects of the compounds were studied on the lingomandibular reflex, which was provoked by means of electrical stimulation of the tongue. The mandibular reflux was registered from a transducer connected to the mandible. Phenyramidole was tested by the same procedure. As evident from the results shown in Table 8, the compound according to Example 2 of the invention is 10 times as potent as phenyramidole.

For orientation: LD50 means the dose expected to kill half of the subjects tested. Read a high LD50 as a less toxic substance. As for `CCCCN1CCCCC1C(=O)Nc1c(C)cccc1C` (centres unmarked) [Bupivacaine, reference compound], in [1], the TD50 turned out to be 9 mg/kg. For the same molecule, the Lethal dose in the data set with rats was 13 mg/kg. Also, the LD50 in the data set “in vivo” was determined as 50 mg/kg.

For the molecule `CCN1CCCCC1COc1c(C)cccc1C` (centres unmarked) [Example 5, N-ethyl-2-[(2,6-xyloxy)-methyl]piperidine], in data set [1], the TD50 was 15 mg/kg. Moreover, the Lethal dose in the data set on rats stood at 41 mg/kg. The molecule also came in with an Infiltration anesthesia duration in the data set on guinea pigs of 70 min. In the data set with sciatic nerve, the “Nerve blocking effect, Motoric blockade” value came to 90 min and the “Nerve blocking effect, Sensoric blockade” value was 115 min. Also, in the data set with rabbit cornea (concentration 1.0%), the “Topical anesthetic effect, Duration” value is listed as 18 ± 3 min and the “Topical anesthetic effect, Onset frequency” value is listed as 9/10. Further, in the data set on cynomolgus monkeys (3.0% by wt.), the “Duration, Anal Blockade” value was determined as 258 min; the “Duration, Digital Blockade” value came out at 163 min; the “Duration, Motor Blockade” value was determined as 178 min. The Duration of regularization with ventricular arrhythmias (1 mg/kg) is 3 min. This molecule yielded a median lethal dose (LD50) in “in vivo” of 200 mg/kg.

On to `CCN(CC)CC(=O)Nc1c(C)cccc1C` [Lidocaine, reference compound], for which the Infiltration anesthesia duration in the data set on guinea pigs is listed as 25 min. Moreover, in the data set on sciatic nerve, the “Nerve blocking effect, Motoric blockade” value was 40 min and the “Nerve blocking effect, Sensoric blockade” value came to 35 min. For the same molecule, in the data set with rabbit cornea (concentration 4.0%), the “Topical anesthetic effect, Duration” value was 23 ± 3 min and the “Topical anesthetic effect, Onset frequency” value was 10/10. In the data set with cynomolgus monkeys (5.0% by wt.), the “Duration, Anal Blockade” value came to 150 min; the “Duration, Digital Blockade” value stood at 88 min; the “Duration, Motor Blockade” value turned out to be 73 min. Moreover, the Duration of regularization in the data set with ventricular arrhythmias (1 mg/kg) turned out to be 2 min. In the data set on ventricular arrhythmias (2 mg/kg), the Duration of regularization was determined as 4 min.

In the data set on guinea pigs, `Cc1ccccc1OCC1CCCCN1C` (centres unmarked) [Example 11] returned an Infiltration anesthesia duration of 55 min. Moreover, in the data set with sciatic nerve, the “Nerve blocking effect, Motoric blockade” value is listed as 60 min and the “Nerve blocking effect, Sensoric blockade” value stood at 85 min. The same molecule had an LD50 in the data set “in vivo” of 300 mg/kg.

As for `Cc1ccc(OCC2CCCCN2C)c(C)c1` (centres unmarked) [Example 8], in the data set on guinea pigs, the Infiltration anesthesia duration was determined as 35 min. For the same molecule, in the data set with sciatic nerve, the “Nerve blocking effect, Motoric blockade” value worked out at 55 min and the “Nerve blocking effect, Sensoric blockade” value was determined as 75 min. This molecule showed an LD50 in the data set “in vivo” of 400 mg/kg.

As to `CCCCN1CCCCC1COc1c(C)cccc1C` (centres unmarked) [Example 7, N-(n-butyl)-2-[(2,6-xyloxy)methyl]piperidine], the TD50 in [1] was 16 mg/kg. Further, the Lethal dose in the data set on rats amounted to 24 mg/kg. The same molecule displayed an Infiltration anesthesia duration in the data set with guinea pigs of 165 min. Further, in the data set with sciatic nerve, the “Nerve blocking effect, Motoric blockade” value is recorded as 140 min and the “Nerve blocking effect, Sensoric blockade” value is reported as 160 min. Besides, in the data set with rabbit cornea (concentration 1.0%), the “Topical anesthetic effect, Duration” value turned out to be 27 ± 4 min and the “Topical anesthetic effect, Onset frequency” value is 10/10. Further, the Duration of regularization with ventricular arrhythmias (1 mg/kg) is listed as 4 min. The same molecule gave an LD50 in the data set “in vivo” of 225 mg/kg.

As to `Cc1cccc(C)c1OCC1CCCCN1` (centres unmarked) [Example 1, 2-[(2,6-xyloxy)methyl]piperidine], the TD50 in [1] is 22 mg/kg. In the data set with rats, this molecule had a Lethal dose of 50 mg/kg. The same molecule returned an Infiltration anesthesia duration with guinea pigs of 40 min. For the same molecule, in the data set on sciatic nerve, the “Nerve blocking effect, Motoric blockade” value is 75 min and the “Nerve blocking effect, Sensoric blockade” value is on record as 90 min. Also, in the data set on rabbit cornea (concentration 1.0%), the “Topical anesthetic effect, Duration” value is recorded as 24 ± 4 min and the “Topical anesthetic effect, Onset frequency” value is recorded as 9/10. For the same molecule, the Duration of regularization with ventricular arrhythmias (1 mg/kg) is 5 min. Besides, the Duration of regularization in the data set with ventricular arrhythmias (2 mg/kg) is 10 min. In “in vivo”, the LD50 worked out at 110 mg/kg.

`CC1CCCC(C)C1OCC1CCCCN1C` (centres unmarked) [Example 4] displayed an Infiltration anesthesia duration in the data set with guinea pigs of 60 min. For the same molecule, in the data set on sciatic nerve, the “Nerve blocking effect, Motoric blockade” value was determined as 65 min and the “Nerve blocking effect, Sensoric blockade” value turned out to be 80 min. Moreover, the LD50 in “in vivo” turned out to be 350 mg/kg.

In general, inhibition refers to the drop in the measured response relative to a control, in per cent. `Cc1cccc(C)c1OCC1CCCCN1C.Cl` (centres unmarked) [Example 2, N-methyl-2-[(2,6-xyloxy)methyl]-piperidine hydrochloride]: the TD50 in data set [1] turned out to be 10 mg/kg. In the data set with rats, this molecule had a Lethal dose of 33 mg/kg. Besides, the Infiltration anesthesia duration with guinea pigs is given as 120 min. For the same molecule, the “Nerve blocking effect, Motoric blockade” value with sciatic nerve turned out to be 110 min. For the same molecule, the “Nerve blocking effect, Sensoric blockade” value in the data set on sciatic nerve worked out at 135 min. Also, in the data set on rabbit cornea (concentration 1.0%), the “Topical anesthetic effect, Duration” value turned out to be 14 ± 4 min. Also, the “Topical anesthetic effect, Onset frequency” value in the data set with rabbit cornea (concentration 1.0%) was 7/10. In addition, the Duration of regularization in the data set with ventricular arrhythmias (1 mg/kg) turned out to be 2 min; in the data set on ventricular arrhythmias (2 mg/kg) it was 4 min. The inhibition at 0.25 mg/kg with lingomandibular reflex (Felis catus, iv, 0.25 mg/kg bodyweight, read-out: Maximal inhibition) came to 30%. Moreover, the inhibition at 0.5 mg/kg with lingomandibular reflex (Felis catus, iv, 0.50 mg/kg bodyweight, read-out: Maximal inhibition) is 80%. In addition, the inhibition at 1 mg/kg with lingomandibular reflex (Felis catus, iv, 1.00 mg/kg bodyweight, read-out: Maximal inhibition) is 100%. In addition, the Duration of inhibition in the data set on lingomandibular reflex (i.v., 0.25 mg/kg bodyweight) turned out to be 10 min; with lingomandibular reflex (i.v., 0.50 mg/kg bodyweight), 20 min; with lingomandibular reflex (i.v., 1.00 mg/kg bodyweight), 45 min. Besides, the “Potency relative to phenyramidole” value in the data set on lingomandibular reflex (i.v., compared with phenyramidole) is recorded as 10 times. Also, the LD50 in “in vivo” came to 260 mg/kg.

The molecule `Cc1cccc(C)c1OCC1CCCCN1CCO` (centres unmarked) [Example 12] registered an Infiltration anesthesia duration in the data set on guinea pigs of 40 min. Moreover, in the data set on sciatic nerve, the “Nerve blocking effect, Motoric blockade” value came out at 95 min and the “Nerve blocking effect, Sensoric blockade” value is listed as 95 min. Further, the median lethal dose (LD50) in the data set “in vivo” worked out at 220 mg/kg.

For the molecule `CCCN1CCCCC1COc1c(C)cccc1C` (centres unmarked) [Example 6, N-(n-propyl)-2-[(2,6-xyloxy)methyl]piperidine], the TD50 in [1] came out at 11 mg/kg. In the data set on rats, this molecule had a Lethal dose of 20 mg/kg. The Infiltration anesthesia duration in the data set on guinea pigs is listed as 175 min. Besides, in the data set on sciatic nerve, the “Nerve blocking effect, Motoric blockade” value came out at 145 min and the “Nerve blocking effect, Sensoric blockade” value stood at 155 min. Moreover, in the data set with rabbit cornea (concentration 1.0%), the “Topical anesthetic effect, Duration” value worked out at 24 ± 2 min and the “Topical anesthetic effect, Onset frequency” value is 9/9. In the data set on cynomolgus monkeys (3.0% by wt.), the “Duration, Anal Blockade” value was more than 291 min; the “Duration, Digital Blockade” value is 222 min; the “Duration, Motor Blockade” value was more than 198 min. Further, the Duration of regularization in the data set on ventricular arrhythmias (1 mg/kg) came out at 4 min. In addition, in the data set “in vivo”, the 50% lethal dose (LD50) stood at 200 mg/kg.

`CC1CCCC(C)C1OCC1CCCCN1` (centres unmarked) [Example 3, 2-[(2,6-dimethylcyclohexyloxy)methyl]piperidine] returned an Infiltration anesthesia duration with guinea pigs of 35 min. Also, in the data set with sciatic nerve, the “Nerve blocking effect, Motoric blockade” value was determined as 0 min and the “Nerve blocking effect, Sensoric blockade” value was found to be 0 min. The molecule further had an LD50 in the data set “in vivo” of 180 mg/kg.

Turning to `CN1CCCCC1COc1ccccc1` (centres unmarked) [Example 10], the Infiltration anesthesia duration in the data set on guinea pigs was 35 min. Moreover, in the data set on sciatic nerve, the “Nerve blocking effect, Motoric blockade” value was found to be 25 min and the “Nerve blocking effect, Sensoric blockade” value was 40 min. Moreover, in “in vivo”, the median lethal dose (LD50) is 150 mg/kg.

In turn, `Cc1ccc(C)c(OCC2CCCCN2C)c1` (centres unmarked) [Example 9] showed an Infiltration anesthesia duration in the data set on guinea pigs of 25 min. Further, in the data set on sciatic nerve, the “Nerve blocking effect, Motoric blockade” value was found to be 75 min and the “Nerve blocking effect, Sensoric blockade” value is on record as 95 min. The molecule also registered a median lethal dose (LD50) in the data set “in vivo” of 400 mg/kg.

With `OC(CNc1ccccn1)c1ccccc1` (centres unmarked) [Phenyramidole, reference compound], in the data set on lingomandibular reflex (Felis catus, iv, 2.5 mg/kg bodyweight, read-out: Maximal inhibition), the inhibition at 2.5 mg/kg was found to be 40%. The inhibition at 5 mg/kg with lingomandibular reflex (Felis catus, iv, 5.0 mg/kg bodyweight, read-out: Maximal inhibition) was 80%. Further, the inhibition at 10 mg/kg in the data set on lingomandibular reflex (Felis catus, iv, 10.0 mg/kg bodyweight, read-out: Maximal inhibition) was determined as 100%. Moreover, the Duration of inhibition in the data set on lingomandibular reflex (i.v., 2.5 mg/kg bodyweight) amounted to 5 min; with lingomandibular reflex (i.v., 5.0 mg/kg bodyweight), 20 min; with lingomandibular reflex (i.v., 10.0 mg/kg bodyweight), 60 min.
